Literature values as cited in patent publication US20120046368A1, “METHOD FOR PURIFYING 3,4-DIHYDROXYPHENYLGLYCOL (DHPG) FROM PLANT PRODUCTS” (CONSEJO SUPERIOR DE INVESTIGACIONES CIENTIFICAS, priority 2008, published 2012).

Experiments:
[1] = fold greater than ascorbic acid or HT
[2] = compared with HT

OCC(O)c1ccc(O)c(O)c1 (centres unmarked) [DHPG, 3,4-dihydroxyphenylglycol]
antioxidant efficacy in water relative to ascorbic acid or HT [1]: 2-3 times
antioxidant efficacy in a lipid medium relative to HT [2]: twice that of HT
